From ChEMBL document CHEMBL1201862, “PubChem BioAssay data set” (2004) come the findings set out here.

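Method: 48-hour compound exposure of cells in 96-well plates, five concentrations, linear interpolation of endpoints. At the GI50, growth is halved.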 The source made the active and inactive calls. No stated cut-off is given here; in the data, active = GI50 up to about 1.1 µM and inactive = higher. Peptide text beside a SMILES is read from it. * marks the point of attachment. Cbz = O=C(OCc1ccccc1)*; Boc = CC(C)(C)OC(=O)*; OBn = c1ccc(CO*)cc1

Common to all, as to test: DTP human tumour cell line panel, 48 h
The test system of assay [1] is 786-0.
Assay [2] relates to A498.
For assay [3], the system named is BT-549.
Assay [4] relates to HOP-92.
Assay [5] concerns HT-29.
The subject of assay [6] is Hs-578T.
The test system of assay [7] is K562.
Assay [8] deals with LOX IMVI.
Assay [9] has as its system Malme-3M.
In assay [10] the test system is NCI-H226.
The subject of assay [11] is NCI-H460.
In assay [12] the test system is OVCAR-4.
The test system of assay [13] is OVCAR-5.
In assay [14] the test system is OVCAR-8.
Assay [15] has as its system SF-295.
For assay [16], the system named is SK-MEL-28.
For assay [17], the system named is SNB-75.
The test system of assay [18] is U-251.
Assay [19] concerns UO-31.

Broadly, the GI50 is the concentration that inhibits growth by half. Turning to `C#CC(O)/C=C/CCCCCCC#CC/C=C\CC#CCCCCCCCCC(O)C#C` (stereo not given), the GI50 in assay [1] is 2.08 µM (inactive); in assay [2] it was 12.6 µM (inactive); in [3] it was 6.71 µM (inactive); in assay [4], 1.8 µM (inactive); in assay [5], 2.74 µM (inactive); in assay [6], 20.6 µM (inactive). Moreover, the GI50 in assay [7] is 3.14 µM (inactive); in [8], < 0.01 µM (active); in [9] it was 1.95 µM (inactive); in assay [10] it was 15.6 µM (inactive); in assay [11], 17.1 µM (inactive); in assay [12], 4.19 µM (inactive). Besides, the GI50 is 12.8 µM (inactive) in [13]; 1.91 µM (inactive) in assay [14]; 15.1 µM (inactive) in [15]; 3.42 µM (inactive) in [16]; 9.1 µM (inactive) in assay [17]; 20.5 µM (inactive) in assay [18]. In addition, the concentration for 50% growth inhibition (GI50) in [19] was 0.667 µM (active).
For the compound `C/C=C(\C)c1cc(=O)c2c(C)cc3c(c2o1)C(=O)c1c(O)c(C2CC(C)(N(C)C)C(OC(C)=O)C(C)O2)cc(C2CC(N(C)C)C(O)C(C)O2)c1C3=O` (stereo not given), the 50% growth inhibitory concentration (GI50) is 0.358 µM (active) in [1]; 1.48 µM (inactive) in [2]; 1.07 µM (active) in assay [3]; 1.45 µM (inactive) in assay [4]; 0.324 µM (active) in [5]; 2 µM (inactive) in [6]. For the same compound, the concentration for 50% growth inhibition (GI50) in [7] is 0.652 µM (active); in [8], 0.731 µM (active); in [9] it was 0.352 µM (active); in assay [10] it was 1.31 µM (inactive); in assay [11], 0.00982 µM (active); in assay [12], 1.48 µM (inactive). The GI50 in assay [13] was 1.25 µM (inactive); in assay [14] it was 0.542 µM (active); in assay [15], 1.06 µM (active); in [16], 1.91 µM (inactive); in assay [17], 1.64 µM (inactive); in assay [18], 0.49 µM (active). In addition, the GI50 in assay [19] is 0.948 µM (active).
Turning to `CC(C)CCC1(O)O[C@H]2C[C@H]3[C@@H]4CCC5CC(=O)C=C[C@]5(C)[C@H]4CC[C@]3(C)[C@H]2[C@@H]1C` (stereo not given in full), the GI50 in assay [1] is 12.3 µM (inactive); in assay [2] it was 14.6 µM (inactive); in assay [3], 14.3 µM (inactive); in assay [4], 3.58 µM (inactive); in assay [5] it was 7.64 µM (inactive); in [6], 2.82 µM (inactive). The GI50 in [7] is 5.07 µM (inactive); in assay [8] it was 12.7 µM (inactive); in assay [9] it was 14.9 µM (inactive); in [10] it was 0.612 µM (active); in assay [11] it was 10.3 µM (inactive); in assay [12], 11.9 µM (inactive). In addition, the GI50 in assay [13] is 13.1 µM (inactive); in [14], 14.2 µM (inactive); in assay [15], 11.7 µM (inactive); in assay [16], 11.5 µM (inactive); in assay [17], 14.3 µM (inactive); in assay [18], 10.7 µM (inactive). In addition, the GI50 in assay [19] was 16.6 µM (inactive).
Turning to `CO/C(N)=C(C#N)/N=C/c1ccsc1`, the GI50 in [1] was 23.9 µM (inactive); in assay [2] it was > 100 µM (inactive); in assay [3], 20.4 µM (inactive); in [4], 34.1 µM (inactive); in assay [5], 40.7 µM (inactive); in assay [6] it was 52.2 µM (inactive). For the same compound, the GI50 in [7] was 30.4 µM (inactive); in [8], 18.6 µM (inactive); in assay [9], 40.6 µM (inactive); in assay [10], > 100 µM (inactive); in [11], > 100 µM (inactive); in assay [12] it was > 100 µM (inactive). The GI50 in assay [13] is > 100 µM (inactive); in assay [14], 59 µM (inactive); in assay [15] it was > 100 µM (inactive); in [16], 85.5 µM (inactive); in assay [17], 56 µM (inactive); in assay [18] it was 40 µM (inactive). Besides, the GI50 in assay [19] is > 100 µM (inactive).
With `O=C(O)CCCSc1ccccc1`, the GI50 in [1], in assay [2], in [3], in [4], in assay [5] and in assay [6] was > 100 µM (inactive) throughout. Further, the GI50 in assay [7], in [8], in assay [9], in [10], in [11] and in assay [12] was > 100 µM (inactive) each time. Further, the GI50 in assay [13], in [14], in [15], in assay [16], in [17] and in [18] was > 100 µM (inactive) throughout. Besides, in [19], the GI50 was > 100 µM (inactive).
For the compound `CC(Oc1ccccc1)C(=O)NN` (stereo not given), the GI50 was > 100 µM (inactive) in [1]; > 100 µM (inactive) in [2]; > 100 µM (inactive) in assay [3]; > 100 µM (inactive) in [4]; > 100 µM (inactive) in assay [5]; 34.8 µM (inactive) in assay [6]. For the same compound, the GI50 in [7], in [8], in [9], in [10], in assay [11] and in assay [12] was > 100 µM (inactive) each time. Besides, the GI50 in assay [13], in [14], in [15], in [16], in assay [17] and in [18] was > 100 µM (inactive) each time. The GI50 in assay [19] was > 100 µM (inactive).
`CN(Cc1cnc2nc(N)nc(N)c2n1)c1ccc(C(=O)NCS(=O)(=O)O)cc1`: the GI50 is 59.3 µM (inactive) in assay [1]; > 100 µM (inactive) in assay [2]; > 100 µM (inactive) in assay [3]; 1.34 µM (inactive) in [4]; > 100 µM (inactive) in assay [5]; > 100 µM (inactive) in assay [6]. In addition, the GI50 in [7] is > 100 µM (inactive); in assay [8] it was 90.4 µM (inactive); in assay [9] it was > 100 µM (inactive); in assay [10] it was > 100 µM (inactive); in assay [11], 92.7 µM (inactive); in assay [12] it was > 100 µM (inactive). For the same compound, the GI50 in assay [13] was > 100 µM (inactive); in assay [14] it was > 100 µM (inactive); in assay [15], > 100 µM (inactive); in [16] it was > 100 µM (inactive); in assay [17] it was 29.4 µM (inactive); in [18], > 100 µM (inactive). The GI50 in assay [19] was > 100 µM (inactive).
Regarding `COc1cc2nc(-c3cccs3)nc(N3CCN(c4ccccc4C(F)(F)F)CC3)c2cc1OC`, the GI50 in assay [1] was > 100 µM (inactive); in [2], > 100 µM (inactive); in [3], > 100 µM (inactive); in assay [4] it was 21.4 µM (inactive); in assay [5], > 100 µM (inactive); in assay [6], 89.9 µM (inactive). Further, the GI50 in assay [7] was 83.6 µM (inactive); in assay [8] it was > 100 µM (inactive); in assay [9], > 100 µM (inactive); in assay [10] it was > 100 µM (inactive); in assay [11], > 100 µM (inactive); in [12] it was > 100 µM (inactive). The GI50 in [13] is > 100 µM (inactive); in [14], 93.3 µM (inactive); in assay [15], 51.2 µM (inactive); in assay [16] it was > 100 µM (inactive); in [17] it was > 100 µM (inactive); in assay [18] it was > 100 µM (inactive). Further, the GI50 in assay [19] was > 100 µM (inactive).
For `COC(=O)C(CCCCNC(=O)OCc1ccccc1)NC(=O)C(CCC(=O)OCc1ccccc1)NC(=O)OC(C)(C)C` (stereo not given) (Boc-Glu(OBn)-Lys(Cbz)-OMe; configuration not given here), the GI50 was > 100 µM (inactive) in assay [1]; 16.1 µM (inactive) in assay [2]; > 100 µM (inactive) in assay [3]; > 100 µM (inactive) in assay [4]; > 100 µM (inactive) in [5]; 27.7 µM (inactive) in [6]. For the same compound, the GI50 in [7] was > 100 µM (inactive); in assay [8], > 100 µM (inactive); in assay [9], 54.3 µM (inactive); in [10], > 100 µM (inactive); in assay [11], > 10 µM (inactive); in [12] it was 57.3 µM (inactive). Moreover, the GI50 in assay [13] was > 100 µM (inactive); in assay [14], > 100 µM (inactive); in assay [15], 64.4 µM (inactive); in assay [16], 64 µM (inactive); in [17] it was > 100 µM (inactive); in assay [18], > 100 µM (inactive). Besides, in assay [19], the GI50 was > 100 µM (inactive).
For the compound `CC(=O)NC1C(OCc2ccccc2)OC(CO)C(O)C1OCC(=O)NC(C)C(=O)NC(CCC(=O)NCCCCNc1ccc([N+](=O)[O-])c2[nH]c3ccccc3c(=O)c12)C(N)=O` (stereo not given), the GI50 was 42.9 µM (inactive) in assay [1]; > 100 µM (inactive) in [2]; 30.1 µM (inactive) in assay [3]; > 100 µM (inactive) in [4]; 69.3 µM (inactive) in [5]; 29.6 µM (inactive) in [6]. Besides, the GI50 in [7] is > 100 µM (inactive); in [8] it was > 100 µM (inactive); in assay [9] it was > 100 µM (inactive); in assay [10], 66.1 µM (inactive); in assay [11], 68.5 µM (inactive); in assay [12], 40.5 µM (inactive). Moreover, the GI50 in [13] was > 100 µM (inactive); in assay [14] it was > 100 µM (inactive); in assay [15], 34.6 µM (inactive); in assay [16], > 100 µM (inactive); in assay [17] it was 43.9 µM (inactive); in assay [18] it was 79.1 µM (inactive). Further, the GI50 in assay [19] was > 100 µM (inactive).
